Assay results: ChEMBL document CHEMBL1255323, “Prevalence and susceptibility profile of Candida metapsilosis and Candida orthopsilosis: results from population-based surveillance of candidemia in Spain” (2008)
≈ marks a conversion by molar mass, not a printed value. Numbered stars: 1 amine (or outer) side, 2 acyl side, 3 side chain; on linkers, the order of the positions; unused ones are H or OH. Bridge positions count the residues as written; N and C are the ends. Square brackets hold non-standard residues; d marks the D form. Peptide text beside a SMILES is read from it. * marks the point of attachment. hTyr(3S-OH,4S-OH,3'-OSO3H) = N[C@H](C(=O)O)[C@H](O)[C@@H](O)c1ccc(O)c(OS(=O)(=O)O)c1; pTerphenylCO(4''-OnC5H11) = CCCCCOc1ccc(-c2ccc(-c3ccc(C(=O)*)cc3)cc2)cc1; Orn(4R-OH,5R-OH) = O=C([C@H](C[C@@H](O)[C@@H](O)N[*:3])N[*:1])[*:2]; hTyr(3S-OH,4S-OH) = N[C@H](C(=O)O)[C@H](O)[C@@H](O)c1ccc(O)cc1; Pro(3S-OH,4S-Me) = C[C@H]1CN[C@H](C(=O)O)[C@H]1O; X1 = CCCCCOc1ccc(-c2cc(-c3ccc(C(=O)*)cc3)no2)cc1; Gln(3R-OH) = NC(=O)C[C@@H](O)[C@H](N)C(=O)O; Hyp = O=C(O)[C@@H]1C[C@@H](O)CN1

How the values were obtained:
Assay type in all cases: functional
Candida metapsilosis = experiment: Antifungal activity against Candida metapsilosis by microdilution AFST-EUCAST method; settings: Lodderomyces metapsilosis
Candida orthopsilosis = experiment: Antifungal activity against Candida orthopsilosis by microdilution AFST-EUCAST method; settings: Lodderomyces orthopsilosis
Candida parapsilosis = experiment: Antifungal activity against Candida parapsilosis by microdilution AFST-EUCAST method; settings: Lodderomyces parapsilosis

SMILES | MIC (Candida metapsilosis) [µg/mL] | MIC50 (Candida metapsilosis) [µg/mL] | MIC (Candida orthopsilosis) [µg/mL] | MIC50 (Candida orthopsilosis) [µg/mL] | MIC (Candida parapsilosis) [µg/mL] | MIC50 (Candida parapsilosis) [µg/mL]
CCC(C)n1ncn(-c2ccc(N3CCN(c4ccc(OCC5COC(Cn6cncn6)(c6ccc(Cl)cc6Cl)O5)cc4)CC3)cc2)c1=O (stereo not given) [ITRACONAZOLE] | 0.04 (≈ 0.0567 µM) | 0.04 (≈ 0.0567 µM) | 0.04 (≈ 0.0567 µM) | 0.03 (≈ 0.0425 µM) | 0.02 (≈ 0.0283 µM) | 0.03 (≈ 0.0425 µM)
CCCCCOc1ccc(-c2cc(-c3ccc(C(=O)N[C@H]4C[C@@H](O)[C@@H](O)NC(=O)[C@@H]5[C@@H](O)[C@@H](C)CN5C(=O)[C@H]([C@H](O)CC(N)=O)NC(=O)[C@H]([C@H](O)[C@@H](O)c5ccc(O)c(OS(=O)(=O)O)c5)NC(=O)[C@@H]5C[C@@H](O)CN5C(=O)[C@H]([C@@H](C)O)NC4=O)cc3)no2)cc1 [MICAFUNGIN] (X1-[Orn(4R-OH,5R-OH)]T[Hyp][hTyr(3S-OH,4S-OH,3'-OSO3H)][Gln(3R-OH)][Pro(3S-OH,4S-Me)]; lactam 1-C) | 0.28 (≈ 0.22 µM) | 0.25 (≈ 0.197 µM) | 0.25 (≈ 0.197 µM) | 0.25 (≈ 0.197 µM) | 0.73 (≈ 0.575 µM) | 1 (≈ 0.787 µM)
Nc1nc(=O)[nH]cc1F [FLUCYTOSINE] | 0.14 (≈ 1.08 µM) | 0.12 (≈ 0.93 µM) | 0.12 (≈ 0.93 µM) | 0.12 (≈ 0.93 µM) | 0.15 (≈ 1.16 µM) | 0.12 (≈ 0.93 µM)
C[C@@H]1[C@H](O)[C@@H](C)/C=C/C=C/C=C/C=C/C=C/C=C/C=C/[C@H](O[C@@H]2O[C@H](C)[C@@H](O)[C@H](N)[C@@H]2O)C[C@@H]2O[C@](O)(C[C@@H](O)C[C@@H](O)[C@H](O)CC[C@@H](O)C[C@@H](O)CC(=O)O[C@H]1C)C[C@H](O)[C@H]2C(=O)O [AMPHOTERICIN B] | 0.08 (≈ 0.0866 µM) | 0.09 (≈ 0.0974 µM) | 0.06 (≈ 0.0649 µM) | 0.06 (≈ 0.0649 µM) | 0.14 (≈ 0.152 µM) | 0.12 (≈ 0.13 µM)
C[C@@H](c1ncncc1F)[C@](O)(Cn1cncn1)c1ccc(F)cc1F [VORICONAZOLE] | 0.03 (≈ 0.0859 µM) | 0.03 (≈ 0.0859 µM) | 0.03 (≈ 0.0859 µM) | 0.03 (≈ 0.0859 µM) | 0.02 (≈ 0.0573 µM) | 0.02 (≈ 0.0573 µM)
CC[C@H](C)C[C@H](C)CCCCCCCCC(=O)N[C@H]1C[C@@H](O)[C@@H](NCCN)NC(=O)[C@@H]2[C@@H](O)CCN2C(=O)[C@H]([C@H](O)CCN)NC(=O)[C@H]([C@H](O)[C@@H](O)c2ccc(O)cc2)NC(=O)[C@@H]2C[C@@H](O)CN2C(=O)[C@H]([C@@H](C)O)NC1=O [CASPOFUNGIN] | 0.22 (≈ 0.201 µM) | 0.25 (≈ 0.229 µM) | 0.16 (≈ 0.146 µM) | 0.12 (≈ 0.11 µM) | 0.4 (≈ 0.366 µM) | 0.5 (≈ 0.457 µM)
OC(Cn1cncn1)(Cn1cncn1)c1ccc(F)cc1F [FLUCONAZOLE] | 1.26 (≈ 4.11 µM) | 1 (≈ 3.27 µM) | 0.5 (≈ 1.63 µM) | 0.5 (≈ 1.63 µM) | 0.37 (≈ 1.21 µM) | 0.5 (≈ 1.63 µM)
CCCCCOc1ccc(-c2ccc(-c3ccc(C(=O)N[C@H]4C[C@@H](O)[C@@H](O)NC(=O)[C@@H]5[C@@H](O)[C@@H](C)CN5C(=O)[C@H]([C@@H](C)O)NC(=O)[C@H]([C@H](O)[C@@H](O)c5ccc(O)cc5)NC(=O)[C@@H]5C[C@@H](O)CN5C(=O)[C@H]([C@@H](C)O)NC4=O)cc3)cc2)cc1 [ANIDULAFUNGIN] ({pTerphenylCO(4''-OnC5H11)}-[Orn(4R-OH,5R-OH)]T[Hyp][hTyr(3S-OH,4S-OH)]T[Pro(3S-OH,4S-Me)]; lactam 1-C) | 0.17 (≈ 0.149 µM) | 0.18 (≈ 0.158 µM) | 0.38 (≈ 0.333 µM) | 0.5 (≈ 0.438 µM) | 0.88 (≈ 0.772 µM) | 1 (≈ 0.877 µM)
C[C@@H](c1nc(-c2ccc(C#N)cc2)cs1)[C@](O)(Cn1cncn1)c1ccc(F)cc1F [RAVUCONAZOLE] | 0.02 (≈ 0.0457 µM) | 0.02 (≈ 0.0457 µM) | 0.02 (≈ 0.0457 µM) | 0.02 (≈ 0.0457 µM) | 0.01 (≈ 0.0229 µM) | 0.02 (≈ 0.0457 µM)
CC[C@@H]([C@H](C)O)n1ncn(-c2ccc(N3CCN(c4ccc(OC[C@@H]5CO[C@@](Cn6cncn6)(c6ccc(F)cc6F)C5)cc4)CC3)cc2)c1=O [POSACONAZOLE] | 0.02 (≈ 0.0285 µM) | 0.02 (≈ 0.0285 µM) | 0.03 (≈ 0.0428 µM) | 0.03 (≈ 0.0428 µM) | 0.02 (≈ 0.0285 µM) | 0.02 (≈ 0.0285 µM)
